Here are results for ten molecules from patent US20020123513A1, “Use of glycogen phosphorylase inhibitors to inhibit tumor growth” (priority 2000, published 2002).

As usually defined, the IC50 is the point on the concentration scale where inhibition reaches its midpoint.

Experiment [1] concerns the target T1, human muscle glycogen phosphorylase a (HMGPa) (Homo sapiens, UniProt P11217).
T1 construct: made in house; host or cells: E. coli XL-1 Blue (pKK233-2)
T1 sequence (P11217 1-842): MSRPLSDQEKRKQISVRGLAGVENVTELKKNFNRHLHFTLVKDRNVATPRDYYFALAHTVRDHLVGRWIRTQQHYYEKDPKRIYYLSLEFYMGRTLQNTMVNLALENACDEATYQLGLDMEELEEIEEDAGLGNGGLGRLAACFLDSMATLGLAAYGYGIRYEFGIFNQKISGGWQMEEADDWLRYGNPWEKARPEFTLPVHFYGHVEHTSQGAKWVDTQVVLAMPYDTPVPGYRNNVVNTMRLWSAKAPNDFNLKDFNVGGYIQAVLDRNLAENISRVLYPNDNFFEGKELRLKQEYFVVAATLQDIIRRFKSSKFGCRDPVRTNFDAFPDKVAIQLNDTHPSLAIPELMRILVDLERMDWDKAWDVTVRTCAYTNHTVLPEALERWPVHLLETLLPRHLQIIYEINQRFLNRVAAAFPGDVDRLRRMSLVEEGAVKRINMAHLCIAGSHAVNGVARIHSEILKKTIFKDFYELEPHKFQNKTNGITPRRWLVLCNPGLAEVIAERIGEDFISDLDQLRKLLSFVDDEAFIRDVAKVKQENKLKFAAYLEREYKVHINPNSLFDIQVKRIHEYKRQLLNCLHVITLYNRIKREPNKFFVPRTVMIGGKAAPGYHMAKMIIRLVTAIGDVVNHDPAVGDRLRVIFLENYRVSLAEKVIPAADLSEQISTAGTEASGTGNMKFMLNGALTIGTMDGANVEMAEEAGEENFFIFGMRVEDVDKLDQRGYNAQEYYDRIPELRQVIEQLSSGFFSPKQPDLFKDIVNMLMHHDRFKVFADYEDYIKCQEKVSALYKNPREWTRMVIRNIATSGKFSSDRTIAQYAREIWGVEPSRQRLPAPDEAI
Kind of experiment: GPa activity assay, reverse direction (release of inorganic phosphate from glucose-1-phosphate), HMGPa. Type of experiment: biochemical. The following applies: recombinant human muscle GPa, glucose present. On the procedure: (§1) In this invention, enzyme activity is determined by measurement of the reverse activity of GPa, i.e., by measuring the release of phosphate due to the incorporation of glucose-1-phosphate into glycogen, where the amount of phosphate released is determined using the spectrophotometric method and experimental conditions described hereinbelow.
(§2) The three different purified glycogen phosphorylase (GP) isoenzymes from a human source, wherein glycogen phosphorylase is in the activated “a” state (referred to as glycogen phosphorylase a, or the abbreviation GPa), and referred to here as human liver glycogen phosphorylase a (HLGPa), human muscle glycogen phosphorylase a (HMGPa), and human brain glycogen phosphorylase a (HBGPa), can be obtained by the following procedures.
(§3) The effect of the compounds of Formula I or IA on the activity of the activated form of glycogen phosphorylase (GPa) can be determined by one of two methods; glycogen phosphorylase a activity is measured in the forward direction by monitoring the production of glucose-1-phosphate from glycogen or by following the reverse reaction, measuring glycogen synthesis from glucose-I-phosphate by the release of inorganic phosphate. All reactions are run in triplicate in 96-well microtiter plates and the change in absorbance due to formation of the reaction product is measured at the wavelength specified below in a MCC/340 MKII Elisa Reader (Lab Systems, Finland), connected to a Titertech Microplate Stacker (ICN Biomedical Co, Huntsville, Ala.).
(§4) Buffer B is at pH 7.2 and contains 50 mM HEPES, 100 mM KCl, 2.5 mM EGTA, 2.5 mM MgCl2 and 0.5 mM dithiothreitol. […] The compounds to be tested are added as 5 μL of solution in 14% DMSO prior to the addition of the enzyme. […] After a 20 minute incubation at room temperature, the absorbance is measured at 620 nm.
(§5) The above assays carried out with a range of concentrations of test compound allows the determination of an IC50 value (as defined hereinabove, see e.g., p. 14) for the in vitro inhibition of GPa enzyme activity by that test compound.

Experiment [2] has as its target T2, human liver glycogen phosphorylase a (HLGPa) (Homo sapiens, UniProt P06737).
T2 construct: made in house; host or cells: E. coli XL-1 Blue (pKK233-2) or Sf9 insect cells (pBlueBac II baculovirus)
T2 sequence (P06737 1-847): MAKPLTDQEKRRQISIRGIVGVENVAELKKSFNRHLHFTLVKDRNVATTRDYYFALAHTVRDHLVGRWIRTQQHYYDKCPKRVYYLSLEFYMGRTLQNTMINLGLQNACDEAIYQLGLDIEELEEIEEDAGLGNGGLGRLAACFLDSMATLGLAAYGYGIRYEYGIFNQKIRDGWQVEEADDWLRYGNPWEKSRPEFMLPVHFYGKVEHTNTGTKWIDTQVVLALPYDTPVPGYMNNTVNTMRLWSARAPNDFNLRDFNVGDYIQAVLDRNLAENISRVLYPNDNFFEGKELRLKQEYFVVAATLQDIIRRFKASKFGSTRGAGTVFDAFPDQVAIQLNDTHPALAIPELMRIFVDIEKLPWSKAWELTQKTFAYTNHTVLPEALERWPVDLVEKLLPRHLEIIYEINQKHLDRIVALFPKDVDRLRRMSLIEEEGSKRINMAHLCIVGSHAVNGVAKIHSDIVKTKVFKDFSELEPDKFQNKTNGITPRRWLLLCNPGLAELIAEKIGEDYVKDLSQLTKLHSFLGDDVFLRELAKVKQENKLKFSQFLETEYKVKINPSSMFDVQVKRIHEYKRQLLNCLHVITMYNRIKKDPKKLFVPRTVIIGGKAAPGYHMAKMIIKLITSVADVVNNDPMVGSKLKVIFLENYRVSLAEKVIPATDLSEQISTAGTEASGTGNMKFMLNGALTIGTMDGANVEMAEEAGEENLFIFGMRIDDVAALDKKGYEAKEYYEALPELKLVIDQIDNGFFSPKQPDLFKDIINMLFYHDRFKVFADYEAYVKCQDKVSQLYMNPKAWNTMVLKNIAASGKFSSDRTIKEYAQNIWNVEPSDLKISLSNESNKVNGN
Kind of experiment: GPa activity assay, reverse direction (release of inorganic phosphate from glucose-1-phosphate), HLGPa. Type of experiment: biochemical. The conditions noted are these: recombinant human liver GPa, glucose present. The method, then: as §1, §2, §3, §4, §5

For `O=C(NCC(=O)N1CCSC1)c1cc2cc(Cl)ccc2[nH]1` [5-chloro-1H-indole-2-carboxylic acid (2-oxo-2-thiazolidin-3-yl-ethyl)-amide], the IC50 came to 433 nM in experiment [1] and 307 nM in experiment [2].

For the molecule `O=C(NC(Cc1ccccc1)C(=O)N1CCC(O)C1)c1cc2cc(Cl)ccc2[nH]1` (centres unmarked) [5-chloro-1H-indole-2-carboxylic acid [1-benzyl-2-(3-hydroxypyrrolidin-1-yl)-2-oxo-ethyl]-amide], the IC50 in experiment [1] amounted to 85 nM; in experiment [2], 45 nM.

For the molecule `O=C(N[C@@H](Cc1ccccc1)C(=O)N1CC(O)C1)c1cc2cc(Cl)ccc2[nH]1` [5-chloro-1H-indole-2-carboxylic acid [(1S)-benzyl-2-(3-hydroxy-azetidin-1-yl)-2-oxo-ethyl]-amide], the IC50 in experiment [1] is 121 nM; in experiment [2], 65 nM.

Take `O=C(N[C@@H](Cc1ccccc1)[C@@H](O)C(=O)N1C[C@@H](O)[C@@H](O)C1)c1cc2cc(Cl)ccc2[nH]1` [5-chloro-1H-indole-2-carboxylic acid [(1S)-benzyl-3-(cis-3,4-dihydroxy-pyrrolidin-1-yl)-(2R)-hydroxy-3-oxopropyl]-amide]: the half-inhibitory concentration (IC50) in experiment [1] was 385 nM; in experiment [2], 59 nM.

Take `O=C(N[C@@H](Cc1ccccc1)C(=O)N1C[C@H](O)[C@@H](O)C1)c1cc2cc(Cl)ccc2[nH]1` [5-chloro-1H-indole-2-carboxylic acid [(1S)-benzyl-2-((3S,4S)-dihydroxy-pyrrolidin-1-yl)-2-oxo-ethyl-amide]: the IC50 in experiment [1] is 71 nM; in experiment [2] it was 137 nM.

Take `O=C(N[C@@H](Cc1ccccc1)[C@@H](O)C(=O)N1C[C@H](O)[C@@H](O)C1)c1cc2cc(Cl)ccc2[nH]1` [5-chloro-1H-indole-2-carboxylic acid [(1S)-benzyl-(2R)-hydroxy-3-((3S,4S)-dihydroxy-pyrrolidin-1-yl)-3-oxopropyl]-amide]: the concentration for half-maximal inhibition (IC50) in experiment [1] amounted to 90 nM; in experiment [2] it was 73 nM.

Turning to `O=C(N[C@@H](Cc1ccccc1)C(=O)N1C[C@@H](O)[C@@H](O)C1)c1cc2cc(Cl)ccc2[nH]1` [5-chloro-1H-indole-2-carboxylic acid [(1S)-benzyi-2-(cis-3,4-dihydroxypyrrolidin-1-yl)-2-oxo-ethyl]-amide], the IC50 in experiment [1] is 97 nM; in experiment [2], 30 nM.

In the case of `O=C(N[C@@H](Cc1ccccc1)[C@@H](O)C(=O)N1CC[C@H](O)C1)c1cc2cc(Cl)ccc2[nH]1` [5-chloro-1H-indole-2-carboxylic acid [(1S)-benzyl-(2R)-hydroxy-3-((3S)-hydroxy-pyrrolidin-1-yl)-3-oxopropyl]-amide], the concentration for half-maximal inhibition (IC50) in experiment [1] amounted to 96 nM; in experiment [2] it was 54 nM.

For `O=C(N[C@@H](Cc1ccccc1)[C@@H](O)C(=O)N1CC(O)C1)c1cc2cc(Cl)ccc2[nH]1` [5-chloro-1H-indole-2-carboxylic acid [(1S)-benzyl-3-((3-hydroxyazetidin-1-yl)-(2R)-hydroxy-3-oxopropyl]-amide], the half-maximal inhibitory concentration (IC50) is 706 nM in experiment [1] and 236 nM in experiment [2].

In the case of `O=C(N[C@@H](Cc1ccccc1)C(=O)N1CC(=NO)C1)c1cc2cc(Cl)ccc2[nH]1` [5-chloro-1H-indole-2-carboxylic acid [(1S)-benzyl-2-(3-hydroxyimino-azetidin-1-yl)-2-oxo-ethyl]-amide], the IC50 in experiment [1] came out at 84 nM; in experiment [2], 65 nM.
